Experimental findings from PubChem BioAssay (NCI) are described below.

Some test systems named below: HCC-2998 colon; HL-60(TB) leukemia; IGROV1 ovarian; MDA-MB-435; OVCAR-5 ovarian; RPMI-8226 leukemia; RXF 393 renal; SF-295 CNS; UACC-257 melanoma; UACC-62 melanoma.
Holding throughout (assay): growth of human tumour cells (NCI), 48 h

Values joined by “and” are separate entries in the source; they are usually repeats but may differ in a detail not shown here. Identical values can stand only once.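 Where inhibition never reached the appropriate level, the endpoint shown equals the highest concentration tested. Otherwise, values were interpolated linearly from a five-concentration, 48-hour dose response in 96-well plates. At the GI50, growth is halved. TGI marks complete inhibition of growth.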

Consider `CC([C@H]1CCC2C3CCC4C[C@@H](N)CC[C@]4(C)C3CC[C@@]21C)N(C)C` (some centres undefined), for which the GI50 with HCC-2998 colon was 12.8 µM; in the assay with HL-60(TB) leukemia, 5.55 µM; with IGROV1 ovarian, 8.88 µM; in the assay on MDA-MB-435, 2.26 µM; with OVCAR-5 ovarian, 17.5 µM; with RPMI-8226 leukemia it was 3.04 µM. Besides, the GI50 in the assay with RXF 393 renal was 4.55 µM; with SF-295 CNS, 6.46 µM; in the assay with UACC-257 melanoma, 2.4 µM; in the assay with UACC-62 melanoma it was 2.36 µM. Besides, the TGI is 26.3 µM in the assay with HCC-2998 colon; 13.2 µM in the assay on HL-60(TB) leukemia; 35 µM in the assay on IGROV1 ovarian; 5.27 µM in the assay on MDA-MB-435; 41.4 µM with OVCAR-5 ovarian; 11.7 µM in the assay on RPMI-8226 leukemia. Further, the TGI with RXF 393 renal was 14.9 µM; in the assay on SF-295 CNS it was 22.5 µM; in the assay on UACC-257 melanoma it was 5.42 µM; with UACC-62 melanoma, 5.67 µM.
`CC(C)=CCC/C(C)=C\CCC1(C)OC(=O)C2CC21` (centres undefined): the TGI in the assay on HCC-2998 colon was greater than 100 µM; in the assay on HL-60(TB) leukemia it was 49.9 µM and 26.6 µM; in the assay on IGROV1 ovarian it was > 100 µM and 37.2 µM; in the assay with MDA-MB-435, > 100 µM and 56.7 µM; in the assay on OVCAR-5 ovarian, greater than 100 µM; with RPMI-8226 leukemia, 68.1 µM and 44.2 µM. The TGI in the assay on RXF 393 renal was 92.3 µM; with SF-295 CNS, greater than 100 µM; in the assay with UACC-257 melanoma it was greater than 100 µM; in the assay on UACC-62 melanoma it was greater than 100 µM. Besides, the GI50 with IGROV1 ovarian was > 100 µM and 18.2 µM; with MDA-MB-435, 73.9 µM and 23.1 µM; with SF-295 CNS, > 100 µM and 49.8 µM; in the assay on UACC-62 melanoma it was > 100 µM and 34.4 µM.
Regarding `CC(=[N-])N1CCC[C@@H](Nc2c3ccccc3nc3ccccc23)C1.[Cl][Pt].[NH-]CCC[NH-]`, the GI50 in the assay with HCC-2998 colon was 1.7 µM; with HL-60(TB) leukemia, 2.04 µM; in the assay on IGROV1 ovarian, 0.577 µM; in the assay on MDA-MB-435, 4.43 µM; with OVCAR-5 ovarian it was 2.89 µM; with RPMI-8226 leukemia it was 2.42 µM. Also, the GI50 is 1.25 µM in the assay with RXF 393 renal, 0.384 µM in the assay on SF-295 CNS, 2.49 µM with UACC-257 melanoma and 0.0295 µM with UACC-62 melanoma. In addition, the TGI is 9.17 µM with HCC-2998 colon; greater than 100 µM with HL-60(TB) leukemia; greater than 100 µM in the assay on IGROV1 ovarian; 18.4 µM with MDA-MB-435; 36.4 µM in the assay with OVCAR-5 ovarian; greater than 100 µM in the assay with RPMI-8226 leukemia. Moreover, the TGI in the assay with RXF 393 renal is 2.96 µM; in the assay on SF-295 CNS, greater than 100 µM; in the assay with UACC-257 melanoma, greater than 100 µM; in the assay with UACC-62 melanoma, 0.114 µM.
Consider `CC1=C(C(=O)Nc2cc(Cl)c3[nH]ncc3c2)C(c2ccc(C(F)(F)F)cc2)CC(=O)N1` (centres undefined), for which the GI50 in the assay on HCC-2998 colon was greater than 25 µM; with HL-60(TB) leukemia it was greater than 21.2 µM; in the assay with IGROV1 ovarian, greater than 25 µM; in the assay with MDA-MB-435 it was greater than 23.3 µM; in the assay with OVCAR-5 ovarian, greater than 25 µM; in the assay with RPMI-8226 leukemia, 24.9 µM. The GI50 in the assay with RXF 393 renal is 2.37 µM; in the assay on SF-295 CNS it was 8.6 µM; in the assay on UACC-257 melanoma, greater than 25 µM; in the assay with UACC-62 melanoma, 19 µM. For the same molecule, the TGI with HCC-2998 colon, in the assay with HL-60(TB) leukemia, in the assay with IGROV1 ovarian, in the assay on MDA-MB-435, in the assay on OVCAR-5 ovarian and in the assay on RPMI-8226 leukemia was greater than 25 µM throughout. The TGI in the assay with RXF 393 renal, in the assay on SF-295 CNS, in the assay on UACC-257 melanoma and in the assay on UACC-62 melanoma was greater than 25 µM throughout.
`Cc1ccc(NC(=O)CSc2nnc3n(Cc4ccccc4)c(=O)c4c(C)c(C(N)=O)sc4n23)cc1`: the GI50 was greater than 100 µM in the assay on HCC-2998 colon; greater than 100 µM in the assay on HL-60(TB) leukemia; 37 µM with IGROV1 ovarian; greater than 100 µM in the assay with MDA-MB-435; 64.7 µM in the assay on OVCAR-5 ovarian; greater than 100 µM in the assay with RPMI-8226 leukemia. For the same molecule, the GI50 in the assay on RXF 393 renal is 6.88 µM; in the assay with SF-295 CNS, 26.7 µM; in the assay on UACC-257 melanoma, greater than 100 µM; in the assay on UACC-62 melanoma, greater than 100 µM. Also, the TGI in the assay on HCC-2998 colon, in the assay on HL-60(TB) leukemia, in the assay with IGROV1 ovarian, with MDA-MB-435, in the assay with OVCAR-5 ovarian and in the assay with RPMI-8226 leukemia was greater than 100 µM each time. In addition, the TGI is 39 µM in the assay on RXF 393 renal, 76.6 µM in the assay on SF-295 CNS, greater than 100 µM in the assay with UACC-257 melanoma and greater than 100 µM with UACC-62 melanoma.
Turning to `CCOC(=O)c1cc(-c2ccccc2)[nH]c1N/N=C/c1ccc(Cl)cc1`, the GI50 was 54.7 µM in the assay with HCC-2998 colon; 29.5 µM in the assay with HL-60(TB) leukemia; 95.2 µM in the assay with IGROV1 ovarian; greater than 100 µM in the assay on MDA-MB-435; greater than 100 µM with OVCAR-5 ovarian; 29.8 µM in the assay on RPMI-8226 leukemia. Further, the GI50 in the assay on RXF 393 renal is greater than 100 µM; with SF-295 CNS it was greater than 100 µM; in the assay on UACC-257 melanoma, greater than 100 µM; in the assay on UACC-62 melanoma, 49.7 µM. Moreover, the TGI is greater than 100 µM in the assay on HCC-2998 colon; 63.8 µM in the assay with HL-60(TB) leukemia; greater than 100 µM in the assay with IGROV1 ovarian; greater than 100 µM with MDA-MB-435; greater than 100 µM in the assay with OVCAR-5 ovarian; greater than 100 µM in the assay with RPMI-8226 leukemia. The TGI in the assay on RXF 393 renal, in the assay with SF-295 CNS, in the assay on UACC-257 melanoma and in the assay on UACC-62 melanoma was greater than 100 µM in each case.
Turning to `O=[N+]([O-])c1cc(C(F)(F)F)ccc1Sc1ccc(C(F)(F)F)cc1[N+](=O)[O-]`, the GI50 with HCC-2998 colon was 19.7 µM; in the assay with HL-60(TB) leukemia it was 3.32 µM; in the assay with IGROV1 ovarian it was 17.1 µM; in the assay with MDA-MB-435, 3.04 µM; with OVCAR-5 ovarian it was 43 µM; in the assay with RPMI-8226 leukemia, 6.69 µM. The GI50 in the assay with RXF 393 renal is 11.4 µM; with SF-295 CNS, 31.4 µM; in the assay with UACC-257 melanoma, 6.65 µM; in the assay on UACC-62 melanoma it was 5.27 µM. The TGI with HCC-2998 colon, in the assay on HL-60(TB) leukemia, in the assay on IGROV1 ovarian, in the assay with MDA-MB-435, in the assay on OVCAR-5 ovarian and with RPMI-8226 leukemia was greater than 100 µM in each case. The TGI with RXF 393 renal, in the assay with SF-295 CNS, in the assay with UACC-257 melanoma and in the assay on UACC-62 melanoma was greater than 100 µM each time.
